Laboratory results as given in publication PMC4301955 (ChemMedChem, 2012).
Where “and” joins values, the source holds several entries; their conditions need not be identical. Identical values can stand only once.

Tests used:
full-length human ERβ [1] = target: T1, full-length human ERβ (Homo sapiens, UniProt Q92731); type: cell-based
full-length human ERβ [2] = target: T1, full-length human ERβ; type: cell-based; settings: HepG2 cells; average efficacy (mean ± s.e.m.) as percentage of 10^−5 M 17β-estradiol
ERα+ MCF-7 cells = settings: for Agonist mode MCF-7 (% E2): ERα+ MCF-7 cells with ERE reporter, average efficacy (mean ± s.e.m.) as percentage of 10^−5 M 17β-estradiol
full-length human ERα = target: T2, full-length human ERα (Homo sapiens, UniProt P03372); type: cell-based; settings: for Agonist mode ERα (% E2): HepG2 cells, average efficacy (mean ± s.e.m.) as percentage of 10^−5 M 17β-estradiol
T2 sequence (P03372 1-595): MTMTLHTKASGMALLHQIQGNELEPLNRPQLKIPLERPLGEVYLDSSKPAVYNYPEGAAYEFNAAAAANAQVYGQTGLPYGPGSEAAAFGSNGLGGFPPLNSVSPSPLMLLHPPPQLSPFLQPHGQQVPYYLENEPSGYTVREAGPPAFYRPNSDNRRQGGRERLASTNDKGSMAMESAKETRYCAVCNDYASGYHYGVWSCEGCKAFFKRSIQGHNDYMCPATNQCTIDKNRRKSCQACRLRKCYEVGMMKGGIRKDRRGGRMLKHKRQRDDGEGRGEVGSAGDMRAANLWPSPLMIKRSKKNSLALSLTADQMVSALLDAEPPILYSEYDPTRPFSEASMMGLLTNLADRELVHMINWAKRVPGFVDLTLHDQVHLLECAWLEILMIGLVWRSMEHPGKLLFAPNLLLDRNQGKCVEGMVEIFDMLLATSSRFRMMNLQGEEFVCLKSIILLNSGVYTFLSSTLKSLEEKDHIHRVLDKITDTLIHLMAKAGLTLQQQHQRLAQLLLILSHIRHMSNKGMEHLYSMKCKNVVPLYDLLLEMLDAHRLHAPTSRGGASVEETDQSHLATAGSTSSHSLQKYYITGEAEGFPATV

[3] = target: T3, purified full-length human ERα (Homo sapiens, UniProt P03372); settings: for Relative binding affinity (RBA) ERα: IC50 estradiol/IC50 compound ×100, estradiol = 100%, ± range or SD, n = 2–3, 10 nM [3H]estradiol, 18–24 h at 0 °C
T3 sequence (P03372 1-595): T2 sequence (P03372 1-595)

[4] = target: purified full-length human ERβ (Homo sapiens, UniProt Q92731); settings: IC50 estradiol/IC50 compound ×100, estradiol = 100%; ± range or SD, n = 2–3; 10 nM [3H]estradiol, 18–24 h at 0 °C
Chain of purified full-length human ERβ (Q92731 whole entry): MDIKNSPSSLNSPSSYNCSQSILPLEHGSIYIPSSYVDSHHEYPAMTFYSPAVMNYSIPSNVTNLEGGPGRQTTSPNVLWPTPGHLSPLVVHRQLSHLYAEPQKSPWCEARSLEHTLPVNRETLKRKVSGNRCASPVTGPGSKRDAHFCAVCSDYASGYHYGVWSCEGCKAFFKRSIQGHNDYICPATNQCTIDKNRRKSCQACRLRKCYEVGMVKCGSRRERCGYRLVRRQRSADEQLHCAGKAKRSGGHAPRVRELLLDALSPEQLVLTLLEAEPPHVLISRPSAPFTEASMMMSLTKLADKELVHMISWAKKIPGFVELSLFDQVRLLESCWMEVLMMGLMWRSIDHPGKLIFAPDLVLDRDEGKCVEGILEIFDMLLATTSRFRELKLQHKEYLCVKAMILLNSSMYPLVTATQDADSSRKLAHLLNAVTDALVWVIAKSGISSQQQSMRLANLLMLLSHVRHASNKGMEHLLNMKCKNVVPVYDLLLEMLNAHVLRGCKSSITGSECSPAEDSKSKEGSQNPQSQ

T1 sequence (Q92731 whole entry): as above

SMILES	Agonist mode ERβ (% E2) (full-length human ERβ [2])	Agonist mode ERα (% E2) (full-length human ERα)	Relative binding affinity (RBA) ERα [3]	α/β ratio ([3]; ratio of the RBA for ERα to the RBA for ERβ)	Relative binding affinity (RBA) ERβ [4]	EC50 (full-length human ERα)	IC50 (full-length human ERβ [1])	Antagonist mode ERβ (% E2) (full-length human ERβ [1])	Agonist mode MCF-7 (% E2) (ERα+ MCF-7 cells)	Activity profile in MCF-7 cells (in words) (ERα+ MCF-7 cells; 3xERE-luciferase, ERα-positive MCF-7 cells)
CC/C(=C(\c1ccc(O)cc1)c1ccc(OCCN(C)C)cc1)c1ccccc1 [Compound 4-OHT, 4-hydroxytamoxifen, reference compound]	−1 ± 1 % E2							−20 ± 2 % E2	−11 ± 1 % E2	
O=S(=O)(Oc1ccccc1)[C@H]1C[C@H]2O[C@@H]1C(c1ccc(O)cc1)=C2c1ccc(O)cc1 [Compound 1]									21 ± 4 % E2	limited agonist activity
C[C@]12CC[C@@H]3c4ccc(O)cc4C[C@@H](CCCCCCCCC[S+]([O-])CCCC(F)(F)C(F)(F)F)[C@H]3[C@@H]1CC[C@@H]2O (some centres unmarked) [Faslodex, reference compound]		1 ± 1 % E2							−4 ± 4 % E2	

The next lines start with results.

Agonist mode ERβ (% E2) (full-length human ERβ [2])	Agonist mode ERα (% E2) (full-length human ERα)	Relative binding affinity (RBA) ERα [3]	α/β ratio ([3]; ratio of the RBA for ERα to the RBA for ERβ)	Relative binding affinity (RBA) ERβ [4]	EC50 (full-length human ERα)	IC50 (full-length human ERβ [1])	SMILES	Antagonist mode ERβ (% E2) (full-length human ERβ [1])	Agonist mode MCF-7 (% E2) (ERα+ MCF-7 cells)	Activity profile in MCF-7 cells (in words) (ERα+ MCF-7 cells; 3xERE-luciferase, ERα-positive MCF-7 cells)
1 ± 2 % E2	29 ± 1 % E2	5.03 ±1.5%	10.52	0.478 ±0.12%			O=S(=O)(Oc1cccc2ccccc12)C1CC2OC1C(c1ccc(O)cc1)=C2c1ccc(O)cc1 (centres unmarked) [Compound 2m]		−4 ± 1 % E2	
1 ± 1 % E2	29 ± 5 % E2	19.0% and 19.00 ±4.6%		1.76% and 1.76 ±0.13%	> 10 µM	> 10 µM	O=S(=O)(Oc1ccccc1Cl)C1CC2OC1C(c1ccc(O)cc1)=C2c1ccc(O)cc1 (centres unmarked) [Compound 2b, 5,6-Bis-(4-hydroxyphenyl)-7-oxabicyclo[2.2.1]hept-5-ene-2-sulfonic Acid 2-Chlorophenyl Ester]		−7 ± 2 % E2	
